# Assay results published in patent US20260218197A1, “EXTRACELLULAR VESICLE SECRETION REDUCING AGENT FOR REDUCING EXTRACELLULAR VESICLE SECRETION, AND USE OF THE SAME” (THEORIA SCIENCE INC., priority 2020, published 2026).
# Tests used:
# [1] = system: colorectal cancer cells HCT116; test: CD63 immunofluorescence / coimmunostaining (intracellular EV accumulation); assay type: cell-based, human; details: HCT116, 2.5 μmol/L, 48 hours, serine-deficient medium, compared with NC (DMSO)
# Experimental: (§1) Colorectal cancer cells HCT116 and lung cancer cells A549 were transfected with siRNA (siPSAT1) in the same manner as in the item (2) in Example A1, and EV biogenesis after PSAT1 silencing was examined. For the respective silenced transformants, CD63 and PSAT1 were examined by immunofluorescence.
# (§2) Further, coimmunostaining of the EV marker CD63 and also an early endosome marker EEA1 or a late endosome marker Rab7 was conducted for the PSAT1-silenced transformants. As a result, no overlap was observed between EEA1 and CD63 in either the PSAT1-silenced transformants or the negative control transformants. […] On this account, the CD63 single-positive area was measured based on the intensity. […] This confirmed that EVs had accumulated in the cells.
# (§3) Specifically, the test was performed in the following manner. Colorectal cancer cells HCT116 and lung cancer cells A549 were each seeded in a 6-well plate at 1.5×10^5 cells/well (Day 0), and incubated for 24 hours in a medium (DMEM with 10% FBS, 1×anti-anti medium). After the incubation (Day 1), the above-described medium was removed, and thereafter, a serine-deficient medium and an inhibitor solution were added to the wells. The inhibitor solution was prepared by dissolving NCT-503 in DMSO, and the concentration of the inhibitor per well was set to 2.5 μmol/L. Then, after another 48 hours of incubation (Day 3), the medium in the wells was collected and the cells in the wells were counted. As negative controls (NC), the test was performed in the same manner, except that DMSO was added instead of the inhibitor solution.
# (§4) EVs accumulated in the cells were analyzed in the following manner. Specifically, the collected cells were immunostained, the CD63 single-positive area was measured based on the fluorescence intensity, and the fluorescence intensity measured in the area was divided by the number of nuclei to determine the amount of EVs accumulated in each cell. On the other hand, secreted EVs were collected from the collected medium and then subjected to the NTA. In the NTA, the amount of secreted EVs was determined as a relative value calculated assuming that the amount of the secreted EVs in the negative control was 1.
# lung cancer cells A549 = test: as above; assay type: cell-based, human; details: A549, 2.5 μmol/L, 48 hours, serine-deficient medium, compared with NC (DMSO)
# Experimental: as §1, §2, §3, §4
# [2] = system: normal epithelial cells in the large intestine (HCoEpiC); test: Amount of secreted EVs per cell by ExoScreen in normal cells; assay type: cell-based
# Experimental: (§5) EV detection was performed using an AlphaLISA reagent (Perkin Elmer) composed of AlphaScreen streptavidin-coated donor beads (6760002), AlphaLISA unconjugated acceptor beads (6062011), and an AlphaLISA universal buffer (AL001F), a 96-well half-area white plate (6005560, Perkin Elmer), and a detection device EnSpire Alpha 2300 Mutilabel plate reader (Perkin Elmer). Specifically, the EV detection was performed as follows. Each well of the plate was filled with 5 μL of EVs or 10 μL of CM (cell culture supernatant), 10 μL of a 5 nmol/L biotinylated antibody solution prepared using the above-described buffer, and 10 μL of 50 µg/mL AlphaLISA acceptor bead-conjugated antibody. For detection of CD9/CD9 double-positive EVs, a biotinylated anti-human CD9 antibody and an anti-human CD9 antibody conjugated with AlphaLISA acceptor beads were used. For detection of CD9/CD63 double-positive EVs, a biotinylated anti-human CD9 antibody and an anti-human CD63 antibody conjugated with AlphaLISA acceptor beads were used. For detection of CD63/CD63 double-positive EVs, a biotinylated anti-human CD63 antibody and an anti-human CD63 antibody conjugated with AlphaLISA acceptor beads were used. The plate was incubated at 37° C. for 1 hour, and then, 25 μL of 80 μg/mL AlphaScreen streptavidin-coated donor beads were added thereto. The plate was incubated at 37° C. for another 30 minutes in the dark. Next, luminescence in the wells of the plate was measured using the detection device with the excitation wavelength set to 680 nm and the emission detection wavelength set to 615 nm. The antibodies used were both commercially available products, namely, a mouse monoclonal anti-human CD9 (Clone 12A12) and a CD63 antibody (Clone 8A12) (both available from Cosmo Bio).
# (§6) The present example examined the effect of NCT-503 on normal cells to provide indirect data showing that NCT-503 reduced EV secretion specific to cancer cells. […] Thereafter, the cell viability was determined and also the amount of secreted EVs was measured by the ExoScreen method.
# (§7) Specifically, the test was performed in the following manner. […] Then, the medium in the wells was collected and the cells in the wells were counted. As a control, the same procedures as described above were performed except that DMSO was added instead of the inhibitor solution, and the cells in the wells were counted. Then, the cell viability was calculated assuming that the number of cells in the NCT-free (0 M) medium (i.e., DMSO-containing medium) of the control was a relative value of 1. Also, the amount of secreted EVs was measured by ExoScreen.
# [3] = system: normal epithelial cells in the lung (HBEC); test: as above; assay type: cell-based
# Experimental: as §5, §6, §7
structure (smiles),measurement,setting,value
Cc1cc(C)nc(NC(=S)N2CCN(Cc3ccc(C(F)(F)F)cc3)CC2)c1 [NCT-503],amount of EVs accumulated in each cell (CD63 single-positive fluorescence intensity / number of nuclei),[1],larger
same,amount of EVs accumulated in each cell (CD63 single-positive fluorescence intensity / number of nuclei),lung cancer cells A549,larger
same,"difference in amount of secreted EVs, NCT-503-containing medium vs DMSO-containing medium without NCT","[2]; normal epithelial cells in the large intestine, 0.15625 to 2.5 μmol/L",almost no difference
same,relative value of the amount of secreted EVs with respect to DMSO-containing medium without NCT (0 µM),"[2]; normal epithelium cells in the large intestine, NCT-503 2.5 mol/L (so in the source), 48 hours, ExoScreen",0.98
same,"difference in amount of secreted EVs, NCT-503-containing medium vs DMSO-containing medium without NCT","[3]; normal epithelial cells in the lung, 0.15625 to 2.5 μmol/L",almost no difference
same,relative value of the amount of secreted EVs with respect to DMSO-containing medium without NCT (0 µM),"[3]; normal epithelium cells in the lung, NCT-503 2.5 mol/L (so in the source), 48 hours, ExoScreen",1.17
